Test results from US20220054411A1, “MULTIPLE CONCENTRATE FORMULATION FOR MEDICAL PRODUCTS” (priority 2020, published 2022).
Converted amounts (≈) assume the structure as drawn.

Key:
Format in all cases: cell-based
[1] = test system: Staphylococcus Aureus; test: Minimal Inhibitory Concentration against Staphylococcus Aureus
[2] = test system: Pseudomonas Aeruginosa; test: Minimal Inhibitory Concentration against Pseudomonas Aeruginosa
[3] = test system: Escherichia coli; test: Minimal Inhibitory Concentration against Escherichia coli
[4] = test system: Staphylococcus epidermidis; test: Minimal Inhibitory Concentration against Staphylococcus epidermidis; conditions: at 24 hours

| SMILES | Minimal Inhibitory Concentration ([1]; pH 5, at 24 hours) [micrograms per milliliter] | Minimal Inhibitory Concentration ([1]; pH 6, at 24 hours) [micrograms per milliliter] | Minimal Inhibitory Concentration ([1]; pH 7, at 24 hours) [micrograms per milliliter] | Minimal Inhibitory Concentration [2] [micrograms per milliliter] | Minimal Inhibitory Concentration ([3]; pH 5, at 24 hours) [micrograms per milliliter] | Minimal Inhibitory Concentration ([3]; pH 6, at 24 hours) | Minimal Inhibitory Concentration ([3]; pH 7, at 24 hours) | Minimal Inhibitory Concentration [4] [micrograms per milliliter] | MIC ([1]; pH 5, at 24 hours) [µg/mL] | MIC ([1]; pH 6, at 24 hours) [µg/mL] | MIC ([1]; pH 7, at 24 hours) [µg/mL] | MIC ([3]; pH 5, at 24 hours) [µg/mL] | MIC ([3]; pH 6, at 24 hours) [µg/mL] | MIC ([3]; pH 7, at 24 hours) [µg/mL] |
| --- | --- | --- | --- | --- | --- | --- | --- | --- | --- | --- | --- | --- | --- | --- |
| CCCCCCCCCCCC(=O)OCC(O)CO (centres unmarked) [Monolaurin, monolaurin] | 16 | 64 | 128 | 62.5 | 500 | 2,000 micrograms per milliliter | >4,000 micrograms per milliliter | 1953 | – | – | – | – | – | – |
| C/C=C/C=C/C(=O)O [Sorbic Acid, sorbic acid] | – | – | – | – | – | – | – | – | 156 (≈ 1390 µM) | 312 (≈ 2790 µM) | 1250 (≈ 11100 µM) | 312 (≈ 2790 µM) | 1250 (≈ 11100 µM) | > 5000 |
